The values that follow come from PMC8802628, “Selective activation of PFKL suppresses the phagocytic oxidative burst” (Cell, 2021).

The target in one series is T1, GSDMD (Homo sapiens, UniProt P57764).
T1 sequence (P57764 1-484): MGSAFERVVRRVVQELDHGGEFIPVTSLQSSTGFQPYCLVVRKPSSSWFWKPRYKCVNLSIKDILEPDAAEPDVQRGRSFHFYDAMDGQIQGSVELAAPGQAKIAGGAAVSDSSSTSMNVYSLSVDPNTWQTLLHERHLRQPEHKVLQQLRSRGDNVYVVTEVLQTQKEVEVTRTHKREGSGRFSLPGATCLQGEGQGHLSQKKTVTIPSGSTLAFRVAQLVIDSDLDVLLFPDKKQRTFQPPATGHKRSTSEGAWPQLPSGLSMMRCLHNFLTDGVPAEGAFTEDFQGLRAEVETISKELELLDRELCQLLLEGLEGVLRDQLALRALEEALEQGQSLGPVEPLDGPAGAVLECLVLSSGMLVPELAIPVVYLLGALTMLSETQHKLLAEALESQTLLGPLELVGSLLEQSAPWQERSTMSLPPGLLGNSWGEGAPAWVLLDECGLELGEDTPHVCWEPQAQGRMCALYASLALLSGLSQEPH
Nature of the series: TR-FRET liposome cargo release (GSDMD pore formation). In kind it is biochemical. Particulars: 10 μM. How it is done:
GSDMD-dependent liposome cargo release was conducted by Confluence Discovery Technologies with modifications to the procedure described previously ([Aglietti et al., 2016]). Briefly, liposomes with an encapsulated cargo of europium-chelate conjugated biotin were formed from a lipid mixture of DOPC:DOPE (1:1). 0.15 mg/mL of cargo-loaded liposomes were mixed with 0.3 μM of recombinant GSDMD and incubated with 10 μM LDC7559, 10 μM disulfiram or DMSO vehicle. 0.15 μM caspase-4 and 50 nM streptavidin-Alexa Fluor 647 were added and TR-FRET was read over 1 h using a PHERAstar FSX Microplate Reader (BMG Labtech) equipped with a TR-FRET module.

For series [1], the target named is T2, PFKL (Homo sapiens, UniProt P17858).
T2 construct: made in house; host or cells: Sf9 insect cells (baculovirus, Bac-to-Bac)
T2 sequence (P17858 1-780): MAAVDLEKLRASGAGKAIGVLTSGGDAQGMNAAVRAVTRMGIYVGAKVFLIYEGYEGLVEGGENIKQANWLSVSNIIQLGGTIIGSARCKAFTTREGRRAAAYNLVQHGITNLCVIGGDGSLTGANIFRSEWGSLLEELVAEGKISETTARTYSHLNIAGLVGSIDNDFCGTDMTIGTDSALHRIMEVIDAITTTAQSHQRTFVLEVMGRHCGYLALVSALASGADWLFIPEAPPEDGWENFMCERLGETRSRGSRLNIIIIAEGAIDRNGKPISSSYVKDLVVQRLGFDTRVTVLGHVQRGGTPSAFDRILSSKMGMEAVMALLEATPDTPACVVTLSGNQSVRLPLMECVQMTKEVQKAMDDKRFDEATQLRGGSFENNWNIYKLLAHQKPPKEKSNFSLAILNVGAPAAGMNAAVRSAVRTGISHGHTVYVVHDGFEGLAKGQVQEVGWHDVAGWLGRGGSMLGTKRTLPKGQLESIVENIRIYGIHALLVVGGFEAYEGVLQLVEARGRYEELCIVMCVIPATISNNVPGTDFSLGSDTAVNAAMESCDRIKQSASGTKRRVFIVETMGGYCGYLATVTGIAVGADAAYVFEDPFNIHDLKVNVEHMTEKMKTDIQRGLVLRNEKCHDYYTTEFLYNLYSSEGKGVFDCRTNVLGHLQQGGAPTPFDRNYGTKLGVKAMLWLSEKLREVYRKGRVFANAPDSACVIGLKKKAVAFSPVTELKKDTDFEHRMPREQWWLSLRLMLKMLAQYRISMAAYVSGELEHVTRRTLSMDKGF
Nature of the series: Thermal inactivation assay of PFKL. In kind it is biochemical. Particulars: 35°C; 200 μM FBP, 200 nM NA-11. The protocol: Thermal inactivation assays were performed as previously described for PFKP, with modifications to account for the decreased stability of PFKL ([Sánchez-Martínez et al., 2000]). PFKL was diluted to 10 ng/mL, with a final buffer composition of 53.3 mM HEPES, 100 mM KCl, 0.167 mM DTT, 83.3 μM ammonium sulfate, 0.83% glycerol, 0.170 mM ATP, and 16.7 mM EDTA. Samples were incubated at 35°C. At the times indicated, samples were removed and residual PFK1 activity measured using the PK/LDH auxiliary enzyme assay described above with 125 μM ATP and 5 mM F6P. To determine if small molecule ligands altered PFKL stability, 200 μM FBP and 200 nM NA-11 were added.

The subject of series [2] is human peripheral blood neutrophils. Nature of the series: NETosis assay in human neutrophils (SYTOX Green, DNA area). In kind it is cell-based. The following applies: PMA; SAR analogs compared to LDC7559. How it is done:
Freshly purified neutrophils were plated at 6 × 10^3 cells/well in glass bottom 96-well plates (SensoPlate, Greiner Bio-One 82050-792) in the RPMI medium described above. Cells were pretreated with DMSO vehicle, 0.5 μM NA-11, 100 μM apocynin, 0.5 μM and 5 μM PALP, or 0.5 μM and 5 μM LDC7559 for 30 min, and then stimulated with 50 nM PMA, 1 μM f-MLP, 5 μg/mL cholesterol crystals, 10 μg/mL LPS, 25 μM nigericin, or 25 μM calcymicin (A23187) for 3 h (except in Figures S1A, 6A and S7C, where cells were stimulated for 4 h). Cells were fixed and permeabilized in 2.5% paraformaldehyde (PFA) and 0.02% Triton X-100 in PBS for 30 min. For quantification of NETosis, cells were stained with 150 nM SYTOX Green and imaged in a KEYENCE Fluorescence Microscope (KEYENCE, ZB-X800E) at 10 x magnification. For immunolabeling, fixed cells were blocked with 2% BSA for 1 h, and then stained with anti-CitH3 and anti-MPO antibodies at a dilution of 1/200 in 1% BSA in PBS. Images were taken at 60 x magnification using an ImageXpress Micro Confocal high-content imaging system (Molecular Devices).
Semi-automated analysis of both phase and fluorescence images of SYTOX Green-stained neutrophils used a specialized MATLAB algorithm. Total cells were counted by scoring phase standard deviation and radial symmetry. NETosis was classified in cells by measuring the DNA area in the fluorescence image and comparing with a select internal training set for each experiment. Unstimulated cells and PMA-stimulated, […] cells served as negative controls. PMA-stimulated cells served as a positive control. NET-forming cells are presented as a percentage of total cells.

In series [3] the target is T2, PFKL. Nature of the series: Recombinant PFKL activity assay (relief of ATP inhibition). Type of series: biochemical. The following applies: 3.1 mM ATP. The source says:
Recombinant N-terminal His-tagged human PFKL (NP_002617), PFKM (NP_000280), and PFKP (NM_002627.4) were generated as described ([Webb et al., 2015], [2017]). Point mutants of PFK1 were generated using the QuikChange Lightning kit (Aligent).
His-tagged PFK1 was expressed and purified as described with slight modifications ([Webb et al., 2015], [2017]). Briefly, baculovirus was generated using the Bac-to-Bac Expression system (Invitrogen). PFK1 was expressed in 2-5 × 10^6 sf9 cells at a multiplicity of infection of two for 48 h. Cells were lysed in 20 mM HEPES, pH 7.5, 80 mM potassium phosphate, 1 mM 2-mercapentoethanol, 10% glycerol, 10 mM imidazole, and EDTA-free Protease Inhibitor Cocktail (Abcam) with a Dounce homogenizer. The soluble lysate was incubated with HisPur cobalt resin (ThermoFisher Scientific). The resin was washed with 5 bead volumes lysis buffer, 10 bead volumes lysis buffer containing 2 M NaCl, and 5 further bead volumes lysis buffer. PFK1 was eluted in lysis buffer containing 100 mM imidazole. Fractions containing protein were pooled, passed over a desalting column equilibrated in freezing buffer [20 mM HEPES pH 7.5, 1 mM DTT, 500 μM ammonium sulfate, 5% glycerol, 1 mM ATP, and 100 μM EDTA] and concentrated using an Amicon Ultracel-30K Centrifugal Filter Unit (MilliporeSigma). Protein was quantified using a Bradford Protein Assay kit (ThermoFisher Scientific), and aliquotes frozen in liquid nitrogen for storage at −80°C.
PFK1 activity was determined using the rate of FBP production via an auxiliary enzyme assay adapted to a 96-well format ([Brüser et al., 2012]; [Webb et al., 2015]). The auxiliary enzymes aldolase, triosephosphate isomerase, and glycerol phosphate dehydrogenase were purchased from MilliporeSigma as ammonium sulfate slurries and desalted using an Amicon Ultracel-10K Centrifugal Filter Unit. For assays containing FBP, the rate of ADP production was determined using the auxiliary enzymes pyruvate kinase (PK) and lactate dehydrogenase (LDH) (MilliporeSigma) in a buffer containing 250 μM phosphoenolpyruvic acid, […] NADH, 50 mM HEPES pH 7.5, 100 mM KCl, 1 mM DTT, and effector concentrations as described in the text. The temperature was equilibrated to 25°C for 5 min before initiating the reaction 10 mM MgCl2. Absorbance at 340 nm was measured using a Varioskan LUX Multimode microplate reader (ThermoFisher). Kinetic parameters were generated by nonlinear regression analysis using Prism (GraphPad Software) and are the mean of a minimum of three measurements from two independent preparations of protein. One unit of activity was defined as the amount of enzyme that catalyzed the formation of 1 μmol of fructose 1,6-bisphosphate per min at 25°C. Assays for PFKM were performed at pH 7.0 due to the pH-dependence of ATP inhibition ([Trivedi and Danforth, 1966]).

The subject of series [4] is PMNs. Nature of the series: ROS detection assay (ROS-Glo) in neutrophils. Type of series: cell-based, human. How it is done:
ROS were measured using the ROS-Glo bioluminescent assay (Promega) for the direct detection of H2O2. Briefly, neutrophils (2 × 10^4) were plated in white 96-well plates (Greiner) in high glucose DMEM medium. Cells were cultured with DMSO vehicle, 0.5 μM NA-11, 5 μM LDC7559, 100 μM apocynin, or 200 μM thionicotinamide for 30 min, and then stimulated with 50 nM PMA or treated with 10 μg/mL zymosan beads, pre-opsonized in 20% serum for 30 min. Luminescence, after the addition of H2O2 substrate solution of 20 min, and then ROS-Glo detection solution for 20 min, was recorded on a plate reader (Envision).

Series [5] deals with human bronchial epithelial cells (HBECs). Nature of the series: Epithelial barrier tissue damage assay (FITC-dextran). Type of series: cell-based. Particulars: PMA-activated neutrophils on HBECs. The protocol: Human bronchial epithelial cells (HBECs) (4 × 10^4 in […] complete PneumaCult-Ex plus medium) were added to a HTS Transwell-96 permeable support plate (polyester membrane with a 0.4 μm pores) and immersed in receiver plates containing 150 μL of complete PneumaCult-Ex plus medium for 3 days. The medium on confluent monolayers was then replaced with RPMI medium containing neutrophils (4 × 10^4) in RPMI buffer that were previously treated with 5 μM NA-11, 100 μM apocynin, 5 μM NA-4, or DMSO vehicle and then activated with 100 nM PMA. The transwell plate was cultured in a new receiver plate containing 150 μL Hank’s balanced salt solution (HBSS) for 2 h. 10 μL of DMEM supplemented with 5% FBS and 2 mM L-glutamine were added to each well and the plate was incubated for additional 18 h. To measure the permeability of the epithelial barrier, FITC-dextran (200 μg/mL) and DNase-1 (22 Units/mL) were added to the apical side for 1 h. FITC-dextran in the receiver plate was measured (ex: 494 em: 521).

The subject of series [6] is PMNs. Nature of the series: NADPH/NADP+ detection assay in neutrophils. In kind it is cell-based, human. The following applies: pretreatment, PMA-activated neutrophils. How it is done:
The ratio of NADPH/NADP^+ (or NADH/NAD^+) was calculated after measuring the individual concentrations of NADPH and NADP^+ (or NADH and NAD^+) with NADP/NADPH-Glo (or NAD/NADH-Glo) assays (Promega). […] Cells were lysed in plates by addition of 1% dodecyltrimethylammonium bromide (DTAB). To measure NADPH, half of the samples was heated at 60 °C for 30 min. The other half was treated with HCl before heating to 60°C, to measure NADP^+. All samples were neutralized before adding luciferase detection reagent, then incubated for 1 h with gentle shaking. Luminescence was recorded on a plate reader (Envision).

A further series has as its system E. coli. Nature of the series: Phagocytosis assay: E. coli C.F.U. recovered from PMNs. Particulars: neutrophils pretreated 30 min. In kind it is cell-based, human. The protocol: Neutrophils (1 × 10^6) were cultured in 6-well tissue in RPMI medium containing DMSO vehicle, 0.5 μM NA-11, 0.5 μM NA-4, 100 μM Apocynin or 100 μM thionicotinamide (TN) for 30 min. E. coli grown in LB broth overnight (2 mL) were opsonized with human serum (1 mL pooled from three donors) for 1 h at room temperature. Opsonized bacteria were washed with PBS, resuspended in LB broth to an OD600of 0.1 and then added to cultured neutrophils at an MOI of 1 for 30 min. Cells were washed with medium three times and then cultured with 300 μg/mL gentamicin for 2 h to kill any extracellular bacteria. Cells were then washed again, twice with medium and once with PBS. To release phagocytosed bacteria, neutrophils were lysed in 0.05% saponin in PBS. Lysates were passed through a 25’ gauge needed several times and the number of viable phagocytosed bacteria was determined by colony counting.

Regarding `CCN(CC)C(=S)SSC(=S)N(CC)CC` [disulfiram], the “liposome permeabilization by GSDMD pore-forming fragment” value at GSDMD is listed as “prevented liposome permeabilization”.
For the compound `O=C(COP(=O)(O)O)[C@@H](O)[C@H](O)[C@H](O)COP(=O)(O)O` [FBP, fructose 1,6-bisphosphate], the “protection of PFKL from thermal inactivation” value at PFKL [1] is given as “protected PFKL from thermal inactivation”.
As for `COc1ccccc1-c1cc2n(n1)Cc1ccc(N)cc1OC2` [NA-4], in series [2], the “inhibition of PMA-induced NETosis” value is reported as “no inhibitor activity”. The “activation of PFKL” value at PFKL [3] is listed as “did not activate PFKL”. For the same compound, the “ROS production during phagocytosis of opsonized zymosan” value with PMNs [4] (over 2 h) was “did not suppress ROS production”. Besides, in series [5], the “protection of epithelial layer from neutrophil-induced oxidative damage” value is “did not”.
Turning to `COc1cc(C(C)=O)ccc1O` [apocynin, reference compound], the “PMA-induced ROS production” value with PMNs [4] (50 nM PMA) is “prevented”. For the same compound, the “ratio of NADPH/NADP+” value in the series on PMNs [6] is recorded as “roughly twice that of untreated cells”. Also, the “killing of phagocytosed bacteria (bacterial colonies recovered)” value in the series with E. coli is reported as “less efficient killers of phagocytosed bacteria”. In series [5], the “protection of epithelial layer from neutrophil-induced oxidative damage” value was “protected the epithelial layer”.
